According to patent US20240000119A1, “MEGASTIGMANE DERIVATIVE COMPOSITIONS AND METHODS FOR TASTE MODULATION” (INTERNATIONAL FLAVORS & FRAGRANCES, priority 2020, published 2024):

Experiments:
[1] = Flavor profiles of megastigmane derivative solutions in water compared with sucrose solution
Text: The flavor profiles of various megastigmane derivative solutions in water including lauroside A (0.5 ppm), ampelopsisionoside (0.5 ppm), bridelionoside F (0.5 ppm), actinidioionoside (0.5 ppm) and roseoside solutions (0.5 ppm) were each compared with that of sucrose solution (1.5%).

[2] = Enhancement of sucrose sweetness: flavor profile of sucrose base solution with added megastigmane derivative; conditions: 0.5 ppm in sucrose base solution (4%)
Experimental: (§1) A sucrose base solution (4%) (“base”) was prepared in water.
Solutions of lauroside A, ampelopsisionoside, bridelionoside F and actinidioionoside were prepared in water (0.01%).
The solutions of lauroside A, ampelopsisionoside, bridelionoside F and actinidioionoside (0.01%) were added to the base, respectively, to a final concentration of 0.5 ppm. The flavor profiles of the sucrose base solution with added megastigmane derivatives are reported in the following: […]

[3] = Sweetness enhancement at different concentrations: flavor profile of sucrose base solution with added roseoside
Experimental: as §1
Roseoside was added to the base to provide a series of solutions with concentrations ranging from 1 ppb to 5 ppm. The flavor profile of the sucrose solution with added roseoside is reported in the following: […]

[4] = Enhancement of mouthfeel by roseoside in water
[5] = 0.5 ppm in water, compared with sucrose solution (1.5%)

Compound | sweet taste (flavor profile) [1, 5] | Flavor Profile [2] | also measured
CC(/C=C/C1(O)C(C)CC(=O)CC1(C)C)OC1OC(CO)C(O)C(O)C1O (stereo not shown) [Ampelopsisionoside, ampelopsisionoside] | none of the megastigmane derivation solutions exhibited a sweet taste |  | 
CC(/C=C/C1(O)C(C)(C)CC(O)CC1(C)O)OC1OC(CO)C(O)C(O)C1O (stereo not shown) [Actinidioionoside, actinidioionoside] | none of the megastigmane derivation solutions exhibited a sweet taste | Enhanced sweetness and mouthfeel | 
CC1=C(/C=C/C(C)OC2OC(CO)C(O)C(O)C2O)C(C)(C)CC(O)C1O (stereo not shown) [Bridelionoside F, bridelionoside F] | none of the megastigmane derivation solutions exhibited a sweet taste | Enhanced sweetness and mouthfeel with para | 
OC[C@H]1O[C@@](CO)(O[C@H]2O[C@H](CO)[C@@H](O)[C@H](O)[C@H]2O)[C@@H](O)[C@@H]1O [sucrose, reference compound] |  |  | sweet taste (flavor profile) ([1]; sucrose solution (1.5%)): tasted slightly sweet
CC1=CC(=O)CC(C)(C)C1(O)/C=C/C(C)OC1OC(CO)C(O)C(O)C1O (stereo not shown) [Roseoside, roseoside] | none of the megastigmane derivation solutions exhibited a sweet taste |  | Flavor Profile ([3]; 1 ppb in sucrose base solution (4%)): Slightly enhanced sweetness and viscous mouthfeel; Flavor Profile ([3]; 1 ppm in sucrose base solution (4%)): Slightly enhanced and lingering sweetness, viscous; Flavor Profile ([3]; 5 ppm in sucrose base solution (4%)): More enhanced and lingering sweetness, slight; Flavor Profile ([3]; 10 ppb in sucrose base solution (4%)): Slightly enhanced and lingering sweetness, viscous; Flavor Profile ([3]; 100 ppb in sucrose base solution (4%)): Slightly enhanced and lingering sweetness, viscous; Flavor Profile ([4]; 0.5 ppm in water): Slight astringency, not sweet; Flavor Profile ([4]; 2 ppm in water): Slight astringency, very slight bitterness, slightly
CC(/C=C/C1(O)C(C)CC(=O)CC1(C)C)OC1OC(CO)C(O)C(O)C1O (stereo not shown) [Lauroside A, lauroside A] | none of the megastigmane derivation solutions exhibited a sweet taste | Enhanced sweetness and mouthfeel, mouth coating, | 
